# Reference: ChEMBL document CHEMBL6177995, “In Silico Discovery of Novel Potent Trace Amine-Associated Receptor TAAR1 Agonists as Promising Drug Candidates for the Treatment of Schizophrenia” (J Med Chem, 2025)
# Assays:
# [1] = biological target: T1, Trace amine-associated receptor 1 (Homo sapiens, UniProt Q96RJ0); experiment: Agonist activity at TAAR1 (unknown origin) transfected in HEK293 cells co-transfected with GalphaS-Nluc, Gbeta1/3 and Ggamma1/2/9-mVenus assessed as GalphaS-Gbeta/gamma dissociation by BRET assay; assay type: functional, cell-based
# T1 sequence (Q96RJ0 whole entry): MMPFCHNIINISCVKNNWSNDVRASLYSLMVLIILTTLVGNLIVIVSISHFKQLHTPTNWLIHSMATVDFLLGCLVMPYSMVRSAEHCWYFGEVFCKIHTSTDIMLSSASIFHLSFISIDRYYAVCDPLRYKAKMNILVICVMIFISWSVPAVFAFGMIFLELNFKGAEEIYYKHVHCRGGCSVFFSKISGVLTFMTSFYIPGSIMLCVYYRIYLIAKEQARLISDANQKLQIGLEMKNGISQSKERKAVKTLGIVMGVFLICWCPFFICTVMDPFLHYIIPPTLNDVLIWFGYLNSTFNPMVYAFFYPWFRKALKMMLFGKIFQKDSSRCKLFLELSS
# [2] = biological target: T1, Trace amine-associated receptor 1; experiment: Agonist activity at TAAR1 (unknown origin) transfected in HEK293 cells co-transfected with Galphaq-Nluc, Gbeta1/3 and Ggamma1/2/9-mVenus assessed as Galphaq-Gbeta/gamma dissociation by BRET assay; assay type: functional, cell-based
SMILES,EC50 [1] [µM],EC50 [2] [µM]
N#Cc1ccc(S(=O)(=O)NC[C@@H]2CCCN2)cc1,> 10,> 10
O=S(=O)(NC[C@@H]1CCCN1)c1ccc(Br)cc1,> 10,> 10
O=[N+]([O-])c1cccc(S(=O)(=O)NC[C@@H]2CCCN2)c1,> 10,> 10
CCC[C@H]1CN(C(=O)c2cc(Cl)cn2C)C[C@@H]1N,0.275,–
CC(=O)Nc1ccc(S(=O)(=O)NC[C@@H]2CCCN2)cc1,–,0.0416
O=[N+]([O-])c1ccc(S(=O)(=O)NC[C@@H]2CCCN2)cc1,> 10,> 10
O=[N+]([O-])c1ccccc1S(=O)(=O)NC[C@@H]1CCCN1,> 10,> 10
O=c1[nH]c2cc(S(=O)(=O)NC[C@@H]3CCCN3)ccc2o1,0.158,–
O=S(=O)(NC[C@@H]1CCCN1)c1cccc(C(F)(F)F)c1,> 10,> 10

# Now from value to compound:
EC50 [1] [µM],EC50 [2] [µM],SMILES
> 10,> 10,O=S(=O)(NC[C@@H]1CCCN1)c1ccccc1Br
> 10,> 10,O=S(=O)(NC[C@@H]1CCCN1)c1cc(F)cc(F)c1
> 10,> 10,Cc1ccc(S(=O)(=O)NC[C@@H]2CCCN2)cc1
0.0472,0.131,O=S(=O)(NC[C@@H]1CCCN1)c1ccc2[nH]cnc2c1
–,0.0357,COc1ccc(S(=O)(=O)NC[C@@H]2CCCN2)cc1
> 10,> 10,Cc1ccccc1S(=O)(=O)NC[C@@H]1CCCN1
0.0488,–,CNc1ncc(S(C)(=O)=O)c(C2CCCNC2)n1 (configuration not stated)
> 10,> 10,O=S(=O)(NC[C@@H]1CCCN1)c1cccc(Br)c1
–,0.055,O=S(=O)(NC[C@@H]1CCCN1)c1ccc2ccccc2c1
> 10,> 10,Cc1cccc(S(=O)(=O)NC[C@@H]2CCCN2)c1
